Patent US7598258B2, “Quinoline derivatives and quinazoline derivatives inhibiting autophosphorylation of macrophage colony stimulating factor receptor” (Kirin Beer Kabushiki Kaisha, priority 2002, dated 2009)

Target: T1, Human KDR (Homo sapiens, UniProt P35968)
T1 construct: expressed in transfected cells; host or cells: NIH3T3 cells (mouse fibroblasts)
Test: Inhibition of KDR phosphorylation in human KDR-transfected NIH3T3 cells (ELISA)
Format: cell-based
Conditions: for Selection ratio (KDR phosphorylation IC50 / c-fms phosphorylation IC50): class 0-3; for IC50: human KDR-transfected NIH3T3 cells, VEGF 100 ng/ml, ELISA, read-out: KDR phosphorylation 50% inhibitory concentration (IC50)
Procedure: Human KDR-transfected NIH3T3 cells (Sawano A et al., Cell Growth & Differentiation, 7, 213-221 (1996)) were cultured in a DMEM medium containing 10% fetal calf serum (purchased from GIBCO BRL) within a 5% carbon dioxide incubator until 50 to 70% confluent. The harvested cells were seeded into wells, containing the same medium, in a collagen type 1 coat 96-well flat-bottom plate in an amount of 1.5×10^4 per well, and cultured at 37° C. overnight. The medium was replaced with a 0.1% fetal calf serum-containing DMEM medium. The test compound dissolved in dimethyl sulfoxide was added to each well, and the cultivation was continued at 37° C. for additional one hr. A human recombinant vascular endothelial growth factor (hereinafter abbreviated to “VEGF”) was added to a final concentration of 100 ng/ml, followed by stimulation of cells at 37° C. for 2 min. The medium was removed, and the cells were washed with phosphate buffered saline (pH 7.4). A solubilization buffer (50 μl) (20 mM HEPES (pH 7.4), 150 mM NaCl, 0.2% Triton X-100, 10% glycerol, 5 mM sodium orthovanadylate, 5 mM disodium ethylenediaminetetraacetate, and 2 mM Na4P2O7) was then added thereto. The mixture was shaken at 4° C. for 2 hr to prepare a cell extract.
Separately, phosphate buffered saline (50 μl, pH 7.4) containing 5 μg/ml of anti-phospho-tyrosine antibody (PY20; purchased from Transduction Laboratories) was added to a microplate for ELISA (Maxisorp; purchased from NUNC), followed by standing at 4° C. overnight to be immobilized on the wells. After washing of the plate, 300 μl of a blocking solution was added, followed by standing at room temperature for 2 hr to perform blocking. After washing, the whole cell extract was transferred and was allowed to stand at 4° C. overnight. After washing, an anti-KDR antibody (purchased from Santa Cruz Biotechnology) was allowed to react at room temperature for one hr. Further, after washing, a peroxidase-labeled anti-rabbit Ig antibody (purchased from Amersham) was allowed to react at room temperature for one hr. After washing, a chromophoric substrate for peroxidase (purchased from Sumitomo Bakelite Co., Ltd.) was added thereto to initiate a reaction. After a suitable level of color development, a reaction termination solution was added to stop the reaction, and the absorbance at 450 nm was measured with a microplate reader. The KDR phosphorylation activity for each well was determined by presuming the absorbance without the addition of the test compound and with the addition of VEGF to be 100% KDR phosphorylation activity and the absorbance without the addition of the test compound and VEGF to be 0% KDR phosphorylation activity. The concentration of the test compound was varied on several levels, the KDR phosphorylation inhibitory rate was determined for each case, and the concentration of the test compound necessary for inhibiting 50% of KDR phosphorylation (IC50) was calculated.

T1 sequence (P35968 20-1356): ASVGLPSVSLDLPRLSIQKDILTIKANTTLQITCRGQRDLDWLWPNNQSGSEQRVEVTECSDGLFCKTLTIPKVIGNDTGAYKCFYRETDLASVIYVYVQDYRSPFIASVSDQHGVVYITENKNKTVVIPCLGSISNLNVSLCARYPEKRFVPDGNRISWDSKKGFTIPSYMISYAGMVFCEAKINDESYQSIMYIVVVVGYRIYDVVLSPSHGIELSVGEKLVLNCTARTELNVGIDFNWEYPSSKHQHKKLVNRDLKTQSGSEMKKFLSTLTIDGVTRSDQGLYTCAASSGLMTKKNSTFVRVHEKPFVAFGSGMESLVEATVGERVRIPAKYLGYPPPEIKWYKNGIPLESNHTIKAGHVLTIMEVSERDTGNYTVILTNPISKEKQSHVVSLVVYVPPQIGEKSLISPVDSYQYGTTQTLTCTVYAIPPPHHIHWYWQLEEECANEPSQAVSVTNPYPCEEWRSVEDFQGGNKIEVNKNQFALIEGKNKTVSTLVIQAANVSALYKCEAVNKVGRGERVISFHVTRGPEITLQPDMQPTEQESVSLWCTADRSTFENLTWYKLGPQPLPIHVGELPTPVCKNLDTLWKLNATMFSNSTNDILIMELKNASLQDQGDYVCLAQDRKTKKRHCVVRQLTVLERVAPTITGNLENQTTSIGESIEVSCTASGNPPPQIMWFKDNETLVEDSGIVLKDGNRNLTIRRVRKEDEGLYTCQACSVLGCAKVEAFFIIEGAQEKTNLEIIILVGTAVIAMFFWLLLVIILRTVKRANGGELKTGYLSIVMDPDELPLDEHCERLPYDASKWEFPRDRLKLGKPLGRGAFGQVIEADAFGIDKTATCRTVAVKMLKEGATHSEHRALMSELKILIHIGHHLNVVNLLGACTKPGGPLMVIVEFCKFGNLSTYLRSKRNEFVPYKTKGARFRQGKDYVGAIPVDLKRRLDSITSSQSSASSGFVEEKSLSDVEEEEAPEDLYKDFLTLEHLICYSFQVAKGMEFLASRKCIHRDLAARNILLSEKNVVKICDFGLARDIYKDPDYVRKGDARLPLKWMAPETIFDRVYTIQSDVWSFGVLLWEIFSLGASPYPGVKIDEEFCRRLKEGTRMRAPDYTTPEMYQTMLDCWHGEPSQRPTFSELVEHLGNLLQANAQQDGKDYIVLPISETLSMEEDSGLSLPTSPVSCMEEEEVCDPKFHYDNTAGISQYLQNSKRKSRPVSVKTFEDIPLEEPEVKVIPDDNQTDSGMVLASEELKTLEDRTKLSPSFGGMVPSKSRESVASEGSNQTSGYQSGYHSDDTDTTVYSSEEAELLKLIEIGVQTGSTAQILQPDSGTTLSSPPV

Compound	Selection ratio (KDR phosphorylation IC50 / c-fms phosphorylation IC50)	IC50 [nM]
COc1cc(Oc2ccnc3cc(OC)c(OC)cc23)ccc1NC(=O)N[C@H](C)c1cccc(Br)c1 [Example 59, N-[(1R)-1-(3-Bromophenyl)ethyl]-N′-{4-[(6,7-dimethoxy-4-quinolyl)oxy]-2-methoxyphenyl}urea]	0 (KDR phosphorylation 50% inhibitory concentration [μM]/c-fms phosphorylation 50% inhibitory concentration [μM] was less than 5)	8.7
COc1cc2nccc(Oc3ccc(NC(=O)N[C@H](C)c4cccc(Br)c4)c(C(F)(F)F)c3)c2cc1OC [Example 60, N-[(1R)-1-(3-Bromophenyl)ethyl]-N′-[4-[(6,7-dimethoxy-4-quinolyl)oxy]-2-(trifluoromethyl)phenyl]urea]	0 (KDR phosphorylation 50% inhibitory concentration [μM]/c-fms phosphorylation 50% inhibitory concentration [μM] was less than 5)	1.9
COc1cc2nccc(Oc3ccc(NC(=O)N[C@H](C)c4cccc(Br)c4)cc3OC)c2cc1OC [Example 61, N-[(1R)-1-(3-Bromophenyl)ethyl]-N′-{4-[(6,7-dimethoxy-4-quinolyl)oxy]-3-methoxyphenyl}urea]	0 (KDR phosphorylation 50% inhibitory concentration [μM]/c-fms phosphorylation 50% inhibitory concentration [μM] was less than 5)	19.2
COc1cc2nccc(Oc3ccc(NC(=O)N[C@H](C)c4cccc(Br)c4)c(C)c3C)c2cc1OC [Example 62, N-[(1R)-1-(3-Bromophenyl)ethyl]-N′-{4-[(6,7-dimethoxy-4-quinolyl)oxy]-2,3-dimethylphenyl}urea]	0 (KDR phosphorylation 50% inhibitory concentration [μM]/c-fms phosphorylation 50% inhibitory concentration [μM] was less than 5)	2.7
COc1cc2nccc(Oc3ccc(NC(=O)N[C@H](C)c4cccc(Br)c4)c(F)c3)c2cc1OC [Example 63, N-[(1R)-1-(3-Bromophenyl)ethyl]-N′-{4-[(6,7-dimethoxy-4-quinolyl)oxy]-2-fluorophenyl}urea]	0 (KDR phosphorylation 50% inhibitory concentration [μM]/c-fms phosphorylation 50% inhibitory concentration [μM] was less than 5)	2.6
COc1cc2c(Oc3ccc(NC(=O)NC(C)c4ccc(F)cc4)cc3F)ccnc2cc1OCCCN1CCOCC1 (stereo not drawn) [Example 64, N-(3-Fluoro-4-{[6-methoxy-7-(3-morpholinopropoxy)-4-quinolyl]oxy}phenyl)-N′-[1-(4-fluorophenyl)ethyl]urea]	0 (KDR phosphorylation 50% inhibitory concentration [μM]/c-fms phosphorylation 50% inhibitory concentration [μM] was less than 5)	9.8
COc1cc2c(Oc3ccc(NC(=O)NC(C)c4ccc(F)c(F)c4)cc3F)ccnc2cc1OCCCN1CCOCC1 (stereo not drawn) [Example 65, N-[1-(3,4-Difluorophenyl)ethyl]-N′-(3-fluoro-4-{[6-methoxy-7-(3-morpholinopropoxy)-4-quinolyl]oxy}phenyl)urea]	0 (KDR phosphorylation 50% inhibitory concentration [μM]/c-fms phosphorylation 50% inhibitory concentration [μM] was less than 5)	31.9
COc1cc2c(Oc3ccc(NC(=O)NC(C)c4ccc(F)cc4F)cc3F)ccnc2cc1OCCCN1CCOCC1 (stereo not drawn) [Example 66, N-[1-(2,4-Difluorophenyl)ethyl]-N′-(3-fluoro-4-{[6-methoxy-7-(3-morpholinopropoxy)-4-quinolyl]oxy}phenyl)urea]	0 (KDR phosphorylation 50% inhibitory concentration [μM]/c-fms phosphorylation 50% inhibitory concentration [μM] was less than 5)	16.5
COc1cc2c(Oc3ccc(NC(=O)NC(C)c4ccc(F)cc4)c(F)c3)ccnc2cc1OCCCN1CCOCC1 (stereo not drawn) [Example 67, N-(2-Fluoro-4-{[6-methoxy-7-(3-morpholinopropoxy)-4-quinolyl]oxy}phenyl)-N′-[1-(4-fluorophenyl)ethyl]urea]	0 (KDR phosphorylation 50% inhibitory concentration [μM]/c-fms phosphorylation 50% inhibitory concentration [μM] was less than 5)	2.9
